Assay results published in PubChem BioAssay AID1963872 (Molecular Pharmacology Branch, DTP, NCI, 2024).

Test system: KRAS patient-derived spheroids with HUVEC/MSC, viability
Assay: Anticancer human tumor 519858-162-T-J1-PDC patient-derived colon adenocarcinoma cell line growth inhibition [KRAS2]
Details: for IC50: curve of first compound; for viability, T/C: stronger effect = lower value
Summary of the method: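 KRAS-mutant tumor cells were grown as spheroids with HUVEC endothelial cells and human MSCs as stroma. Targeted agents were tested alone and with KRAS pathway inhibitors. Doses started at or near clinical Cmax, or 10 microM, descending half-log.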

[1] = second compound 0.1 µM, first compound 0.0316 µM
[2] = second compound 0.1 µM, first compound 0.1 µM
[3] = second compound 0.1 µM, first compound 0.316 µM
[4] = second compound 0.1 µM, first compound 1 µM
[5] = second compound 0.1 µM, first compound 3.16 µM
[6] = second compound 0.1 µM, first compound 10 µM
[7] = second compound 0.316 µM, first compound 0.0316 µM
[8] = second compound 0.316 µM, first compound 0.1 µM
[9] = second compound 0.316 µM, first compound 0.316 µM
[10] = second compound 0.316 µM, first compound 1 µM
[11] = second compound 0.316 µM, first compound 3.16 µM
[12] = second compound 0.316 µM, first compound 10 µM
[13] = second compound 1 µM, first compound 0.0316 µM
[14] = second compound 1 µM, first compound 0.1 µM
[15] = second compound 1 µM, first compound 0.316 µM
[16] = second compound 1 µM, first compound 1 µM
[17] = second compound 1 µM, first compound 3.16 µM
[18] = second compound 1 µM, first compound 10 µM
[19] = second compound 3.16 µM, first compound 0.0316 µM
[20] = second compound 3.16 µM, first compound 0.1 µM
[21] = second compound 3.16 µM, first compound 0.316 µM
[22] = second compound 3.16 µM, first compound 1 µM
[23] = second compound 3.16 µM, first compound 3.16 µM
[24] = second compound 3.16 µM, first compound 10 µM
[25] = second compound 10 µM, first compound 0.0316 µM
[26] = second compound 10 µM, first compound 0.1 µM
[27] = second compound 10 µM, first compound 0.316 µM
[28] = second compound 10 µM, first compound 1 µM
[29] = second compound 10 µM, first compound 3.16 µM
[30] = second compound 10 µM, first compound 10 µM
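Also: compound exposure lasted seven days before readout.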
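For viability, T/C in this document: 100% = DMSO vehicle control viability.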

Row | SMILES | IC50 (second compound 0.1 µM) [µM] | IC50 (second compound 0.316 µM) [µM] | IC50 (second compound 1 µM) [µM] | IC50 (second compound 3.16 µM) [µM] | viability, T/C [1] [%] | viability, T/C [2] [%] | viability, T/C [3] [%] | viability, T/C [4] [%] | viability, T/C [5] [%] | viability, T/C [6] [%] | viability, T/C [7] [%] | viability, T/C [8] [%] | viability, T/C [9] [%] | viability, T/C [10] [%] | viability, T/C [11] [%] | viability, T/C [12] [%] | viability, T/C [13] [%] | viability, T/C [14] [%] | viability, T/C [15] [%] | viability, T/C [16] [%] | also measured
1 | CCNC(=O)CC1N=C(c2ccc(Cl)cc2)c2cc(OC)ccc2-n2c(C)nnc21 (stereo not given) + C=CC(=O)N1CCN(c2nc(=O)n(-c3c(C)ccnc3C(C)C)c3nc(-c4c(O)cccc4F)c(F)cc23)C(C)C1 | 2.66 | 2.38 | 2.56 | 2.21 | 120 | 97.1 | 74.8 | 70.3 | 42.1 | 37.1 | 102 | 95.2 | 79.8 | 54.7 | 53 | 29.7 | 76 | 74.6 | 70.4 | 79.6 | IC50 (second compound 10 µM): 2.68 µM; viability, T/C [17]: 44.2%; viability, T/C [18]: 28.3%; viability, T/C [19]: 93.9%; viability, T/C [20]: 86.3%; viability, T/C [21]: 101%; viability, T/C [22]: 78.2%; viability, T/C [23]: 37.6%; viability, T/C [24]: 29.4%; viability, T/C [25]: 93.9%; viability, T/C [26]: 78.5%; viability, T/C [27]: 97.6%; viability, T/C [28]: 84.7%; viability, T/C [29]: 44.1%; viability, T/C [30]: 25.4%
2 | O=C(c1cc(Cc2n[nH]c(=O)c3ccccc23)ccc1F)N1CCN(C(=O)C2CC2)CC1 + C=CC(=O)N1CCN(c2nc(=O)n(-c3c(C)ccnc3C(C)C)c3nc(-c4c(O)cccc4F)c(F)cc23)C(C)C1 | > 10 | > 10 | > 10 | > 10 | 71.4 | 111 | 96.3 | 120 | 123 | 110 | 89.2 | 91.2 | 95.1 | 97.4 | 91.9 | 111 | 73.9 | 98.4 | 80.8 | 100 | IC50 (second compound 10 µM): > 10 µM; viability, T/C [17]: 89.3%; viability, T/C [18]: 108%; viability, T/C [19]: 88.8%; viability, T/C [20]: 92.5%; viability, T/C [21]: 84%; viability, T/C [22]: 95%; viability, T/C [23]: 96.8%; viability, T/C [24]: 120%; viability, T/C [25]: 106%; viability, T/C [26]: 106%; viability, T/C [27]: 72.5%; viability, T/C [28]: 83.8%; viability, T/C [29]: 86.1%; viability, T/C [30]: 72.7%
3 | COc1cc(Nc2ncc3c(n2)-c2ccc(Cl)cc2C(c2c(F)cccc2OC)=NC3)ccc1C(=O)O + C=CC(=O)N1CCN(c2nc(OCC3CCCN3C)nc3c2CCN(c2cccc4cccc(C)c24)C3)CC1CC#N | > 10 | > 10 | > 10 | > 10 | 89.1 | 82.2 | 102 | 78.8 | 90.5 | 130 | 105 | 89.9 | 63.2 | 75 | 82.5 | 111 | 103 | 80.8 | 66.8 | 69.2 | IC50 (second compound 0.0316 µM): > 10 µM; viability, T/C (second compound 0.0316 µM, first compound 0.0316 µM): 104%; viability, T/C (second compound 0.0316 µM, first compound 0.1 µM): 87.2%; viability, T/C (second compound 0.0316 µM, first compound 0.316 µM): 97.3%; viability, T/C (second compound 0.0316 µM, first compound 1 µM): 90.3%; viability, T/C (second compound 0.0316 µM, first compound 3.16 µM): 74.6%; viability, T/C (second compound 0.0316 µM, first compound 10 µM): 98%; viability, T/C [17]: 99.8%; viability, T/C [18]: 110%; viability, T/C [19]: 74.5%; viability, T/C [20]: 83%; viability, T/C [21]: 75.3%; viability, T/C [22]: 77.2%; viability, T/C [23]: 109%; viability, T/C [24]: 74.3%
